Values quoted from earlier work in paper PMC4585962, “A peptide factor secreted by Staphylococcus pseudintermedius exhibits properties of both bacteriocins and virulence factors” (Scientific Reports, 2015).

How the values were obtained:
proteases = details: cited from earlier work
Protocol: (§1) BacSp222 remains active upon even prolonged incubation at elevated temperature and is exceptionally resistant to proteases in vitro. The former feature is quite common for bacteriocins, which, in combination with the virtual lack of cytotoxicity, contributes to common and successful application of bacteriocins in the food industry as preservatives, either in the form of additives or as coating agents for packaging materials. […] Resistan ...

mammalian cells = details: cited from earlier work
Text: In addition to the evident bactericidal activity of BacSp222, the most intriguing findings are its cytotoxic and modulatory effects on mammalian cells. Generally, peptide bacteriocins are considered to be noncytotoxic. However, the first known bacterial toxin active against eukaryotic and prokaryotic cells was a cytolysin produced by Enterococcus faecalis.

[1] = system: Galleria mellonella larvae; details: degradation or inactivation by host agents; cited from earlier work
Protocol: as §1

Row | Substance | concentrations with adverse effects on mammalian cells (mammalian cells) | also measured
1 | aureocin A53 |  | resistance to proteases (proteases): Resistance to proteases
2 | bovicin HC5 | tens to hundreds | 
3 | epidermicin NI01 |  | time to loss of bacteriocin activity after administration [1]: lost within less than an hour
4 | nisin: low molecular weight bacteriocin produced by lactic acid bacteria (ITSISLCTPGCKTGALMGCNMKTATCHCSIHVSK; not fully specified; Lantibiotic nisin-A; UniProt P13068 24-57, looked up) | tens to hundreds | 
